# Read-outs that look alike come from different tables or passages of the source. Where a SMILES comes first, the peptide text is derived from it. Bridges are numbered along the chain shown (N, C = ends). [ ]: non-standard residue; d: D form. The star is where a group is joined. hPhe(3-Cl-4-CF3) = N[C@@H](CCc1ccc(C(F)(F)F)c(Cl)c1)C(=O)O; NPrPhe(4-CF3) = CCCN[C@@H](Cc1ccc(C(F)(F)F)cc1)C(=O)O; NMeGly(cPent) = CN[C@H](C(=O)O)C1CCCC1; Pro(4,4-F2) = O=C(O)[C@@H]1CC(F)(F)CN1; NMeL = CN[C@@H](CC(C)C)C(=O)O; Morpholide = C1CN(*)CCO1; NMeA = CN[C@@H](C)C(=O)O; Ac5c = NC1(C(=O)O)CCCC1; Aze = O=C(O)[C@@H]1CCN1; Sar = CNCC(=O)O
# How the values were obtained:
# [1] = biological target: GDP-bound KRAS wild-type protein (Homo sapiens, UniProt P01116); experiment: Binding to KRAS by surface plasmon resonance (SPR), Single Cycle Kinetics; conditions: GDP-bound KRAS wild-type protein, read-out: KRAS KD
# [2] = biological target: GDP-bound NRAS wild-type protein (Homo sapiens, UniProt P01111); experiment: Binding to NRAS by surface plasmon resonance (SPR), Single Cycle Kinetics; conditions: SPR, GDP-bound NRAS wild-type protein vs GDP-bound KRAS wild-type protein
# [3] = biological target: GDP-bound HRAS wild-type protein (Homo sapiens, UniProt P01112); experiment: Binding to HRAS by surface plasmon resonance (SPR), Single Cycle Kinetics; conditions: SPR, GDP-bound HRAS wild-type protein vs GDP-bound KRAS wild-type protein
# GDP-bound HRAS wild-type protein, sequence (P01112 whole entry): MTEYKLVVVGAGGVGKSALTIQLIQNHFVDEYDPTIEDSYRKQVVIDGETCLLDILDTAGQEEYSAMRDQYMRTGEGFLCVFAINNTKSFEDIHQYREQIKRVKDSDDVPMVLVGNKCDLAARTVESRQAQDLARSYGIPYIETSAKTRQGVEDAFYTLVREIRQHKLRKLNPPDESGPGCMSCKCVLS
# GDP-bound NRAS wild-type protein, sequence (P01111 whole entry): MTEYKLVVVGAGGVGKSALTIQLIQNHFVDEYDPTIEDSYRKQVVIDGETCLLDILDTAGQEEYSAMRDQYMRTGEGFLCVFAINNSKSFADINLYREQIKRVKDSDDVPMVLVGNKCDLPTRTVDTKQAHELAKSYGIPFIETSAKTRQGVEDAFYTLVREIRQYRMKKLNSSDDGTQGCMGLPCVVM
# GDP-bound KRAS wild-type protein, sequence (P01116 whole entry): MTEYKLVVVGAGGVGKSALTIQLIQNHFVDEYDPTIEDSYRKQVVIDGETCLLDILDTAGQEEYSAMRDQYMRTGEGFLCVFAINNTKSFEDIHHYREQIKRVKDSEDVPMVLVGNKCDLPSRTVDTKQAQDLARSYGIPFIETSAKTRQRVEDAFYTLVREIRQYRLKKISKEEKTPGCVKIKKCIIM
SMILES,"Kd ([1]; SPR, Single Cycle Kinetics) [nM]","Kd ([1]; SPR, Single Cycle Kinetics, 1:1 binding model) [nM]","Kd ([1]; SPR Single Cycle Kinetics, 1:1 binding model) [nM]",NRAS/KRAS (ratio of KD value for NRAS to KD value for KRAS) [2],HRAS/KRAS (ratio of KD value for HRAS to KD value for KRAS) [3],NRAS/KRAS (ratio of KD value for NRAS to KD value for KRAS) ([2]; KD ratio class),HRAS/KRAS (ratio of KD value for HRAS to KD value for KRAS) ([3]; KD ratio class)
CC[C@H](C)[C@@H]1NC(=O)[C@H](CC2CCCC2)N(C)C(=O)C[C@@H](C(=O)N(C)C)N(C)C(=O)[C@@H](C2CCCC2)N(C)C(=O)C2(CCC2)NC(=O)[C@@H]2[C@@H](OCC(F)F)CCN2C(=O)[C@@H](CCc2cc(F)c(C(F)(F)F)c(F)c2)NC(=O)CN(C)C(=O)[C@@H](Cc2ccc(C)cc2)N2CC/C=C\C[C@H](C2=O)N(C)C(=O)CN(C)C1=O [PP1536],,0.2,,,,A (a compound having 10 or more and less than 20 is denoted as A),B (a compound having 3 or more and less than 10 is denoted as B)
CCO[C@@H]1C[C@H]2C(=O)NC3(CCC3)C(=O)N(C)[C@@H](C3CCCC3)C(=O)N(C)[C@H](C(=O)N(C)C)CC(=O)N(C)[C@@H](CC)C(=O)N[C@@H]([C@@H](C)CC)C(=O)N[C@@H](C)C(=O)N(C)[C@H]3C/C=C\CCN(C3=O)[C@@H](Cc3ccc(C(F)(F)F)cc3)C(=O)N(C)CC(=O)N[C@@H](CCc3cc(F)c(C(F)(F)F)c(F)c3)C(=O)N2C1 [PP1065],0.45,,,A (a compound having 10 or more and less than 20 is denoted as A),B (a compound having 3 or more and less than 10 is denoted as B),,
CCO[C@@H]1C[C@H]2C(=O)NC3(CCC3)C(=O)N(C)[C@@H](C3CCCC3)C(=O)N(C)[C@H](C(=O)N3C[C@@H](C)O[C@@H](C)C3)CC(=O)N(C)[C@@H](CC(C)C)C(=O)N[C@@H]([C@@H](C)CC)C(=O)N(C)CC(=O)N(C)[C@H]3CCCCCN(C3=O)[C@@H](Cc3ccc(F)cc3)C(=O)N(C)CC(=O)N[C@@H](CCc3ccc(C(F)(F)F)c(Cl)c3)C(=O)N2C1 [PP1153],0.28,,,B (a compound having 3 or more and less than 10 is denoted as B),B (a compound having 3 or more and less than 10 is denoted as B),,

# The next lines start with results.
"Kd ([1]; SPR, Single Cycle Kinetics) [nM]","Kd ([1]; SPR, Single Cycle Kinetics, 1:1 binding model) [nM]","Kd ([1]; SPR Single Cycle Kinetics, 1:1 binding model) [nM]",SMILES,NRAS/KRAS (ratio of KD value for NRAS to KD value for KRAS) [2],HRAS/KRAS (ratio of KD value for HRAS to KD value for KRAS) [3],NRAS/KRAS (ratio of KD value for NRAS to KD value for KRAS) ([2]; KD ratio class),HRAS/KRAS (ratio of KD value for HRAS to KD value for KRAS) ([3]; KD ratio class)
0.066,,,CC[C@H](C)[C@@H]1NC(=O)[C@H](CC(C)C)N(C)C(=O)C[C@@H](C(=O)N2CCOCC2)N(C)C(=O)[C@H](C2CCCC2)N(C)C(=O)C2(CCC2)NC(=O)[C@@H]2[C@@H](OC)CCN2C(=O)[C@H](CCc2cc(F)c(C(F)(F)F)c(F)c2)NC(=O)CN(C)C(=O)[C@H](Cc2ccc(C(F)(F)F)cc2)N2CCCC[C@@H](C2=O)N(C)C(=O)CN(C)C1=O [PP1075],B (a compound having 3 or more and less than 10 is denoted as B),B (a compound having 3 or more and less than 10 is denoted as B),,
,,1.3,"CCCN1C(=O)[C@@H]2CCN2C(=O)[C@H](C)N(C)C(=O)[C@H]([C@@H](C)CC)NC(=O)[C@H](CC(C)C)N(C)C(=O)C[C@@H](C(=O)N2CCOCC2)NC(=O)[C@H](C2CCCC2)N(C)C(=O)C2(CCCC2)NC(=O)[C@@H]2CC(F)(F)CN2C(=O)[C@H](CCc2ccc(C(F)(F)F)c(Cl)c2)NC(=O)CN(C)C(=O)[C@@H]1Cc1ccc(C(F)(F)F)cc1 [PP0345] ([NMeL]I[NMeA][Aze][NPrPhe(4-CF3)][Sar][hPhe(3-Cl-4-CF3)][Pro(4,4-F2)][Ac5c][NMeGly(cPent)]D-Morpholide; lactam N-11)",C (A compound having a KD ratio of 0.1 or more and less than 3 is denoted as C),B (a compound having 3 or more and less than 10 is denoted as B),,
0.11,,,CCO[C@@H]1C[C@H]2C(=O)NC3(CC(C)(C)C3)C(=O)N(C)[C@@H](C(CC)CC)C(=O)N(C)[C@H](C(=O)N(C)C)CC(=O)N(C)[C@H]3CCCCC/C=C/c4ccc(cc4)C[C@@H](C(=O)N(C)CC(=O)N[C@@H](CCc4cc(F)c(C(F)(F)F)c(F)c4)C(=O)N2C1)N1CC/C=C\C[C@@H](C1=O)N(C)C(=O)CN(C)C(=O)[C@H]([C@@H](C)CC)NC3=O [PP3048],A (a compound having 10 or more and less than 20 is denoted as A),A (a compound having 10 or more and less than 20 is denoted as A),,

# From patent publication US20240158446A1, “CYCLIC COMPOUND HAVING SELECTIVE INHIBITORY ACTION ON KRAS OVER HRAS AND NRAS” (CHUGAI SEIYAKU KABUSHIKI KAISHA, priority 2021, published 2024)
